Laboratory results: patent publication US4551460A, “Pyrido[2,1-b]quinazoline derivatives useful as agents for treatment of allergic conditions and vascular disorders involving thrombosis” (priority 1983, dated 1985)
Where a name gives a salt, the structure may show the parent alone. Read-outs that look alike come from different tables or passages of the source.

Columns and labels:
[1] = test system: histamine-induced constriction in guinea pig ilea; test: Antagonism of histamine-induced constriction in guinea pig ilea; settings: 1×10^-7 M histamine
Protocol: (f) Antagonism of Histamine-induced Constriction in Guinea Pig Ilea
Antihistaminic activity was determined on a segment of guinea pig ileum that was suspended in a 37° C. bath of oxygenated Tyrodes solution. At 4 minute intervals, the ileum was challenged with 1×10^-7 M histamine for sufficient time to produce a peak contraction and then washed with fresh Tyrodes solution. After the tissue response to histamine had stabilized, the ileum was pretreated with the standard antihistaminic compound, pyrilamine maleate, for 1 minute prior to rechallenge with histamine, the contraction recorded, and the tissue washed with Tyrodes solution. […] By the IC50 for pyrilamine maleate in the test system was 1×10^-8 M. IC50 's for test drugs were determined by this same procedure.

[2] = test system: acetylcholine-induced constriction in guinea pig ilea; test: Antagonism of acetylcholine-induced constriction in guinea pig ilea; settings: 5.0×10^-7 M acetylcholine; read-out: IC50 antagonism of acetylcholine-induced constrictions
Protocol: (e) Antagonism of Acetylcholine-induced Constriction in Guinea Pig Ilea
Anticholinergic activity was determined on a segment of guinea pig ileum that was suspended in a 37° C. bath of oxygenated Tyrodes solution. At 4 minute intervals, the ileum was challenged with 5.0×10^-7 M acetylcholine for sufficient time to produce a peak contraction and then washed with fresh Tyrodes solution. After the tissue response to acetylcholine had stablized, the ileum was pretreated with the standard anticholinergic, atropine sulfate, for 1 minute prior to rechallenge with acetylcholine, the contraction recorded and the tissue washed with Tyrodes solution. […] The IC50 for atropine was 1×10^-8 M. THe IC50 's for test drugs were determined by this same procedure.

[3] = test system: leukotriene E (LTE) induced skin wheal formation in rat skin; test: LTE-induced skin wheal formation in rat; type: in vivo; settings: for ED50: rat skin wheal, read-out: ID50 (the source's name)
Protocol: (a) Methodology for LTE-induced Skin Wheal Formation in Rat. The ability of a drug to inhibit leukotriene E (LTE) induced skin wheal formation in rat skin is measured. In this model system a dose of LTE which gives a maximal wheal response, is injected (in 0.05 ml of saline) intradermally into anesthetized rats which have been pretreated for 30 minutes with 50 mg/kg of pyrilamine maleate and 4 mg/kg of methyl […] maleate (both administered intraperitoneally). The animal is then immediately treated with test drug (at 10 mg/kg, i.v.) followed by an intravenous injection of Evans blue (0.5%) into the tail vein of the animal. Thirty minutes later the animals are sacrificed and the increase in capillary permeability induced by LTE is reflected by the migration of dye into the injection point in the skin (the response being quantitated by the size, in mm, of the dye spot in the skin). The average response in 5 animals (4 intradermal injections of LTE per animal) treated with the test compound is compared with the response elicited in a similar group of animals which were not treated with the drug. For oral studies, the test animals are pretreated two hours prior to intradermal injection of LTE.

[4] = test system: leukotriene E induced bronchoconstriction; test: LTE-induced bronchoconstriction in guinea pigs, in vivo (i.v. / oral); parameters: species or system guinea pig (Hartley strain); settings: for ED50: read-out: ID50 (the source's name)
[5] = test system: arachidonic acid induced platelet aggregation; test: Arachidonic acid induced platelet aggregation in vitro; type: cell-based; settings: read-out: AA (IC50, arachidonic acid induced platelet aggregation)
Protocol: (§1) (1) Assay for Platelet Aggregation In Vitro
(§2) The turbidometric method of G. V. R. Born, Nature 194, 927 (1962) is used. Platelet rich plasma (PRP) and platelet poor plasma (PPP) are prepared with 0.38% sodium citrate-treated blood. Speed and time of centrifugation varied with different species; human:160 g for 20 minutes, dog:160 g for 15 minutes, guinea pig and rabbit:160 g for 15 minutes, and rat:230 g for 10 minutes. Aggregation is monitored with a Payton dual channel module or Chronolog lumiaggregometer when the release of ATP is simultaneously measured. 0.45 ml of PRP is added to a cuvette and prewarmed to 37° C. The stimulant (arachidonic acid or synthetic platelet activating factor) is added in volumes of 50 μl; all other agents in 5 μl. Vehicles are added to samples not containing agents. 0 to 100% light transmission is set with PRP and PPP. % aggregation is calculated from the % increase in light transmission at 5 minutes after the addition of the aggregating agent. For inhibition of aggregation studies the inhibitor is added first and preincubated with the platelets for 1 minute with stirring, followed by the stimulant. % inhibition is calculated from the % aggregation with and without the test compound. [formula]

[6] = LD50 in mice (acute toxicity); settings: mouse, in vivo, po, orally
[7] = test system: platelet activating factor induced platelet aggregation; test: Platelet activating factor induced platelet aggregation in vitro; type: cell-based; settings: racemic platelet activating factor; read-out: PAF (IC50, platelet activating factor induced platelet aggregation)
Protocol: as §1, §2

[8] = test system: leukotriene E induced bronchoconstriction; test: Guinea pig bronchoconstriction, in vivo (aerosol); parameters: species or system guinea pig (Hartly strain); settings: aerosol at concentration inhibiting bronchoconstriction by 80%
Protocol: (c) Guinea Pig Bronchoconstriction, In Vivo (Aerosol):
Male guinea pigs (Hartly strain) weighing 300 to 500 g are anesthetized with urethane (2 g/kg) intraperitoneally and a polyethylene cannula is inserted into the jugular vein for drug administration. Tracheal pressure is recorded from a cannula inserted in the trachea and connected to a Statham pressure transducer. After surgical preparation of the animals, a period of time is allowed for pulmonary functions to stabilize. The test compound is administered according to the following protocol. Propranolol (0.1 mg/kg) is administered intravenously while the animals breathed spontaneously. Five minutes thereafter, the animals are exposed for a five minute period to a 1% (w/v) aerosol solution of test compound (adjusted to an alkaline pH where necessary for drug solubilization) or to distilled water of the appropriate pH (for control purposes). A Monaghan (Model 750) ultrasonic nebulizer is used to administer all test compounds by inhalation. The nebulizer ultrasonic frequency is adjusted to produce particles in the 1-8μ diameter range (average 3μ). Aqueous solutions are prepared fresh and introduced into the chamber of the nebulizer. The output of the nebulizer is made available to the animal by directing a bias flow of aerosol through a y tube connected to the tracheal cannula. At the end of the exposure period, the animals are paralyzed with succinylcholine (1.2 mg/kg, i.v.) and mechanically respirated (Harvard rodent respirator) at 40 breaths/minute and 2.5 cc tidal volume. Animals are then challenged with a maximum constrictory dose of leukotriene E delivered intravenously 30 seconds after administration of the succinylcholine.
The change (cm H2 O) between pre and peak ventilatory pressure readings is averaged for three control animals and five drug treated animals. The percent inhibition is calculated from the following formula:
(Control-Drug Tested/Control)×100
When various drug concentrations are tested, the percent inhibition at each concentration is plotted as log concentration (abscissa) versus percent inhibition (ordinate) and the IC50 is determined from linear regression analysis.
In order to determine the aerosol half-life (t 1/2), the animals are prepared as described above, except that the time between aerosol exposure and challenge with leukotriene E is varied. All compounds are administered at the concentration necessary to inhibit leukotriene-induced bronchoconstriction by 80%. Biological half-life is calculated from plots of time (abscissa) versus log percent inhibition (ordinate).

[9] = test system: SRS-A induced contraction of guinea pig ileum; test: In vitro SRS-A antagonism; settings: 30 seconds pretreatment
Protocol: (j) In vitro SRS-A Antagonism
SRS-A was determined by bioassay on the guinea pig ileum using a modification of the method described by Orange et al., Adv. Immunol., 1969, 10, 105. A 1.5 cm segment of the ileum, obtained from male guinea pigs (175-200 g), was suspended in an organ bath containing Tyrodes solution with 10^-6 M atropine sulfate and 10^-6 M pyrilamine maleate. The bath was maintained at 37° C. and gassed with a mixture of 95 percent oxygen and 5 percent carbon dioxide. The ileum was attached to a strain gauge transducer and isotonic contractions recorded by a strip chart recorder. A resting tension of 0.5 g was applied and the tissue allowed to equilibrate for 1 hour.
The SRS-A used in these studies was obtained by challenging a large quantity of chopped lung fragments from actively sensitized guinea pigs with egg albumin in vitro. The animals were sensitized to egg albumin by an intraperitoneal injection of the antigen (1 ml of 10 mg/ml) in saline 28 to 45 days prior to challenge. The in vitro challenge was carried out by first preincubating the lung tissue (40 mg/ml) at 37° C. in Tyrodes solution for 5 minutes, adding the egg albumin ([…] final concentration) to the fragments and after a 10 minute challenge, separating the media containing the SRS-A from the lung tissue by filtration on Whatman #1 filter paper. The concentration of SRS-A in the filtrate was calibrated by comparison of the contraction amplitude elicited in the bioassay system by a given volume of the supernatant with contractions obtained by varying concentrations of histamine. One unit of SRS-A is equivalent to that quantity which will give the same contraction as 5 ng of histamine. After standarization, the SRS-A was stored in small aliquots at -80° C. for further use. […] SRS-A antagonism was determined by pretreating the ileum with drug for 30 seconds prior to the addition of a concentration of SRS-A which have a submaximal response, determination of the amplitude of contraction elicited in the presence of drug and then washing the ileum with Tyrodes. […]

Row | Compound | IC50 [5] [µM] | IC50 [7] [µM] | also measured
1 | COc1ccc(CN(CCN(C)C)c2ccccn2)cc1 [pyrilamine maleate, reference compound] |  |  | IC50 [1]: 0.01 µM
2 | CN1[C@@H]2CC[C@H]1CC(OC(=O)C(CO)c1ccccc1)C2 (stereo partly shown) [atropine, atropine sulfate, reference compound] |  |  | IC50 [2]: 0.01 µM
3 | CC(C)c1ccc2nc3ccc(C(=O)NCCCCc4ccncc4)cn3c(=O)c2c1 [2-(1-methylethyl)-N-[4-(4-pyridyl)butyl]-11-oxo-11H-pyrido[2,1-b]quinazoline-8-carboxamide] | > 10 | < 10 | ED50 ([3]; iv): 10 mg/kg; ED50 ([3]; po): 90 mg/kg; ED50 ([4]; Cavia porcellus, iv): 1.9 mg/kg; ED50 ([4]; Cavia porcellus, po, orally (2 hours pretreatment)): 57 mg/kg; LD50 [6]: > 1000 mg/kg
4 | Cc1ccc2nc3ccc(C(=O)NCCCCc4cccnc4)cn3c(=O)c2c1 [Example 17, 2-Methyl-N-[4-(3-pyridyl)butyl]-11-oxo-11H-pyrido[2,1-b]quinazoline-8-carboxamide] | < 10 | > 10 | 
5 | CC(C)NCC(O)c1ccc(O)c(O)c1 (stereo not shown) [Isoproterenol] |  |  | Biological half-life [8]: 19.4 min
6 | O=C(NCCCCc1cccnc1)c1ccc2nc3ccc(O)cc3c(=O)n2c1 [Example 22, 2-Hydroxy-N-[4-(3-pyridyl)butyl]-11-oxo-11H-pyrido[2,1-b]quinazoline-8-carboxamide] | < 10 | < 10 | 
7 | CC(C)c1ccc2nc3ccc(C(=O)OCCCc4cccnc4)cn3c(=O)c2c1 [Example 1, 2-(1-methylethyl)-11-oxo-11H-pyrido[2,1-b]quinazoline-8-carboxylic acid 3-(3-pyridyl)propyl ester] | > 10 | < 10 | 
8 | CCCc1c(OCC(O)COc2ccc3c(=O)cc(C(=O)O)oc3c2CCC)ccc(C(C)=O)c1O (stereo not shown) [FPL 55712, 7-[3-(4-Acetyl-3-hydroxy-2-propylphenoxy)-2-hydroxypropoxy]-4-oxo-8-propyl-4H-1-benzopyran-2-carboxylic acid, reference compound] |  |  | inhibition at 10 mg/kg ([3]; Rattus norvegicus, iv, 10 mg/kg): 88%; oral activity, LTE-induced skin wheal ([3]; orally): inactive orally; inhibition at 10 mg/kg ([4]; Cavia porcellus, iv, 10 mg/kg): 98%; oral activity, LTE-induced bronchoconstriction ([4]; orally): orally inactive; IC50 [9]: 0.03 µM; Biological half-life [8]: 77 min
9 | CCCCC[C@H](O)/C=C/[C@H]1[C@H](O)CC(=O)[C@@H]1C/C=C\CCCC(=O)O [PGE2] |  |  | Biological half-life [8]: 2.1 min
10 | CC(C)c1ccc2nc3ccc(C(=O)NCCSc4ccncc4)cn3c(=O)c2c1 [Example 12, N-[2-(4-Pyridylthio)ethyl]-2-(1-methylethyl)-11-oxo-11H-pyrido[2,1-b]quinazoline-8-carboxamide] | < 10 | < 10 | 
11 | CC(C)c1ccc2nc3ccc(C(=O)NCCCCCn4ccnc4)cn3c(=O)c2c1 [Example 16, N-[5-(1H-Imidazol-1-yl)pentyl]-2-(1-methylethyl)-11-oxo-11H-pyrido[2,1-b]quinazoline-8-carboxamide] | < 10 | > 10 | 

More lines, main results first:

Row | IC50 [5] [µM] | IC50 [7] [µM] | Compound | also measured
12 | < 10 | < 10 | CC(C)c1ccc2nc3ccc(C(=O)NCCCCCc4ccncc4)cn3c(=O)c2c1 [Example 11, N-[5-(4-Pyridyl)pentyl]-2-(1-methylethyl)-11-oxo-11H-pyrido[2,1-b]quinazoline-8-carboxamide] | 
13 | < 10 | < 10 | CC(C)Oc1ccc2nc3ccc(C(=O)NCCCCc4cccnc4)cn3c(=O)c2c1 [Example 19, 2-(1-Methylethoxy)-N-[4-(3-pyridyl)butyl]-11-oxo-11H-pyrido[2,1-b]quinazoline-8-carboxamide] | 
